Assay results taken from the CheMixHub viscosity set.

Assay: xn = mol fraction of the nth substance listed

CC(C)(C)c1ccccc1 + CCCCCCCCCCCCCCCC
viscosity [mPa·s], 100 kPa
Settings	x2 = 0.0661	x2 = 0.106	x2 = 0.2088	x2 = 0.3087	x2 = 0.3877	x2 = 0.5114	x2 = 0.621	x2 = 0.6915	x2 = 0.8377	x2 = 0.9225
298.15 K	1.236	1.297	1.442	1.566	1.675	1.87	2.073	2.235	2.597	2.821
308.15 K	1.065	1.111	1.235	1.343	1.427	1.584	1.749	1.868	2.138	2.298
318.15 K	0.928	0.968	1.072	1.17	1.247	1.382	1.513	1.606	1.804	1.914

C=CC(=O)OC + CCCCCCCCCCO
viscosity [mPa·s], 101.3 kPa
Settings	x1 = 0.1056	x1 = 0.2709	x1 = 0.3442	x1 = 0.4717	x1 = 0.5843	x1 = 0.7574	x1 = 0.8309	x1 = 0.8923	x1 = 0.9483	x1 = 0.9749
298.15 K	7.732	4.826	3.593	2.331	1.712	0.938	0.738	0.639	0.519	0.482
308.15 K	5.659	3.531	2.828	1.792	1.425	0.804	0.641	0.54	0.459	0.432

C=CC(=O)OCCCC + CCCCCCCCCCO
viscosity [mPa·s], 101.3 kPa
Settings	x1 = 0.0646	x1 = 0.1907	x1 = 0.2493	x1 = 0.3612	x1 = 0.4732	x1 = 0.665	x1 = 0.756	x1 = 0.8402	x1 = 0.9227	x1 = 0.9615
298.15 K	9.073	5.873	4.998	3.536	2.535	1.653	1.303	1.07	0.905	0.843
308.15 K	6.488	4.404	3.679	2.762	2.073	1.301	1.115	0.897	0.781	0.723

C=CC(=O)OC + CCCCCCCCO
viscosity [mPa·s], 101.3 kPa
Settings	x1 = 0.0847	x1 = 0.2398	x1 = 0.3089	x1 = 0.4269	x1 = 0.5391	x1 = 0.7233	x1 = 0.8011	x1 = 0.8748	x1 = 0.9408	x1 = 0.9698
298.15 K	5.555	3.533	2.795	1.948	1.353	0.857	0.692	0.566	0.506	0.47
308.15 K	4.155	2.757	2.06	1.583	1.127	0.732	0.622	0.497	0.433	0.415

C=CC(=O)OCCCC + CCCCCCCCO
viscosity [mPa·s], 101.3 kPa
Settings	x1 = 0.0586	x1 = 0.1668	x1 = 0.2181	x1 = 0.3218	x1 = 0.4238	x1 = 0.6226	x1 = 0.7052	x1 = 0.8125	x1 = 0.9095	x1 = 0.9529
298.15 K	5.944	4.17	3.544	2.729	2.165	1.403	1.232	0.998	0.9	0.85
308.15 K	4.393	3.177	2.752	2.096	1.689	1.146	0.992	0.841	0.753	0.715

C=CC(=O)OC + CCCCCCCO
viscosity [mPa·s], 101.3 kPa
Settings	x1 = 0.0803	x1 = 0.219	x1 = 0.2841	x1 = 0.4009	x1 = 0.5184	x1 = 0.7017	x1 = 0.7824	x1 = 0.8604	x1 = 0.9347	x1 = 0.9686
298.15 K	4.278	2.912	2.304	1.632	1.218	0.783	0.653	0.563	0.493	0.467
308.15 K	3.262	2.282	1.857	1.348	1.032	0.677	0.568	0.49	0.428	0.411

C=CC(=O)OCCCC + CCCCCCCO
viscosity [mPa·s], 101.3 kPa
Settings	x1 = 0.0538	x1 = 0.1451	x1 = 0.1979	x1 = 0.2976	x1 = 0.5964	x1 = 0.6984	x1 = 0.7966	x1 = 0.8968	x1 = 0.9498
298.15 K	4.656	3.548	3.084	2.394	1.35	1.12	0.981	0.869	0.824
308.15 K	3.481	2.761	2.398	1.922	1.084	0.925	0.836	0.736	0.705

C=CC(=O)OC + CCCCCCO
viscosity [mPa·s], 101.33 kPa
Settings	308.15 K	318.15 K
x1 = 0.0466	2.892	2.186
x1 = 0.149	2.128	1.687
x1 = 0.2479	1.616	1.331
x1 = 0.3487	1.247	1.059
x1 = 0.4466	0.989	0.859
x1 = 0.4989	0.881	0.772
x1 = 0.5479	0.795	0.701
x1 = 0.6418	0.662	0.588
x1 = 0.7501	0.549	0.486
x1 = 0.8501	0.472	0.414
x1 = 0.9438	0.417	0.36

C=CC(=O)OC + CCCCCO
viscosity [mPa·s], 101.33 kPa
Settings	308.15 K	318.15 K
x1 = 0.0469	2.288	1.82
x1 = 0.148	1.725	1.406
x1 = 0.2501	1.327	1.104
x1 = 0.3489	1.053	0.89
x1 = 0.4436	0.86	0.735
x1 = 0.5084	0.758	0.651
x1 = 0.545	0.708	0.61
x1 = 0.6489	0.594	0.514
x1 = 0.7484	0.513	0.445
x1 = 0.8456	0.454	0.392
x1 = 0.9477	0.409	0.35

CCCCCCCCCCCCCC(=O)OC + CCCCCO
viscosity [mPa·s], 100 kPa
Settings	x2 = 0.1012	x2 = 0.2002	x2 = 0.2997	x2 = 0.4007	x2 = 0.4997	x2 = 0.6007	x2 = 0.7006	x2 = 0.7997	x2 = 0.9
293.15 K	4.279	4.092	3.927	3.791	3.695	3.592	3.512	3.539	3.679
298.15 K	3.789	3.61	3.474	3.371	3.249	3.162	3.1	3.1	3.191
303.15 K	3.336	3.189	3.071	2.96	2.868	2.794	2.729	2.72	2.795
308.15 K	2.932	2.809	2.701	2.603	2.524	2.454	2.397	2.384	2.429
313.15 K	2.641	2.533	2.43	2.342	2.268	2.197	2.15	2.126	2.159
318.15 K	2.42	2.318	2.234	2.142	2.071	2.006	1.96	1.938	1.949
323.15 K	2.18	2.089	2.009	1.931	1.865	1.803	1.764	1.73	1.738
